Test system: GDF8 signaling (p-SMAD-3 (Ser423/425))
Experiment: AlphaScreen SureFire SMAD3 (p-Ser423/425) assay, GDF8-stimulated cells (GDF pSMAD)
Format: cell-based
Conditions: Mus musculus, MPC-11, GDF8-stimulated pSMAD3, MPC11; tested as the salt form given; read-out: GDF pSMAD (MPC11) (μM), inhibition of GDF8 signaling

Compound | IC50 [µM]
COc1cc(-c2ncccc2-c2ccc3ncnc(N)c3c2)c(Cl)cc1F [compound 1008, 6-(2-(2-chloro-4-fluoro-5-methoxyphenyl)pyridin-3-yl)quinazolin-4-amine] | 5.81
Cc1ccc(C(F)F)cc1-c1ncccc1-c1ccc2ncnc(N)c2c1 [compound 1024, 6-(2-(5-(difluoromethyl)-2-methylphenyl)pyridin-3-yl)quinazolin-4-amine] | 0.577
Nc1ncnc2ccc(-c3cc(F)cnc3-c3cc(Cl)ccc3F)cc12 [compound 999, 6-(2-(5-chloro-2-fluorophenyl)-5-fluoropyridin-3-yl)quinazolin-4-amine] | 1.2

Same assay, conditions: Mus musculus, MPC-11, MPC11; GDF8-stimulated; p-SMAD3 AlphaScreen; read-out: GDF pSMAD (MPC11) (inhibition of GDF8 signaling)

Compound | IC50 [µM]
c1cc(-c2ncccc2-c2ccc3[nH]ncc3c2)cc(C2CC2)c1 [Compound 150, 5-(2-(3-Cyclopropylphenyl)pyridin-3-yl)-1H-indazole] | 0.208
CNc1ncnc2ccc(-c3cccnc3-c3ccc(F)c(Cl)c3)cc12 [compound 886, 6-(2-(3-Chloro-4-fluorophenyl)pyridin-3-yl)-N-methylquinazolin-4-amine] | 0.253
COc1cccc(-c2ncccc2-c2ccn3ncnc3c2)c1 [compound 880, 7-(2-(3-Methoxyphenyl)pyridin-3-yl)-[1,2,4]triazolo[1,5-a]pyridine] | 0.808
FC(F)(F)Oc1cccc(-c2ncccc2-c2ccc3ncnn3c2)c1 [compound 780, 6-(2-(3-(Trifluoromethoxy)phenyl)pyridin-3-yl)-[1,2,4]triazolo[1,5-a]pyridine] | 0.73
Cc1cc(-c2ncccc2-c2ccc3ncn(CCCO)c3c2)ccc1F [Compound 41, 3-(6-(2-(4-Fluoro-3-methylphenyl)pyridin-3-yl)-1H-benzo[d]imidazol-1-yl)propan-1-ol] | 3.14
Cc1cc(-c2ncc(NCc3cncs3)cc2-c2ccc3ncsc3c2)ccc1F [compound 327, 5-(Benzo[d]thiazol-6-yl)-6-(4-fluoro-3-methylphenyl)-N-(thiazol-5-ylmethyl)pyridin-3-amine] | 0.323
Cc1cccc(-c2ncccc2-c2ccc3ncnn3c2)c1 [Compound 192, 6-(2-m-Tolylpyridin-3-yl)-[1,2,4]triazolo[1,5-a]pyridine] | 0.347
Cc1cc(-c2nc3c(cc2-c2ccc4ncsc4c2)NC(=O)CO3)ccc1F [compound 292, 7-(Benzo[d]thiazol-6-yl)-6-(4-fluoro-3-methylphenyl)-1H-pyrido[2,3-b] [1,4]oxazin-2(3H)-one] | 1.74
Cc1cnc2ccc(-c3cccnc3-c3cc(Cl)ccc3F)cn12 [compound 767, 6-(2-(5-Chloro-2-fluorophenyl)pyridin-3-yl)-3-methylimidazo[1,2-a]pyridine] | 0.227
Cc1cc(-c2ncccc2-c2ccn3ncc(C(=O)N[C@@H]4CN5CCC4CC5)c3c2)ccc1F [compound 792, (S)-5-(2-(4-Fluoro-3-methylphenyl)pyridin-3-yl)-N-(quinuclidin-3-yl)pyrazolo[1,5-a]pyridine-3-carboxamide] | 2.43
FC(F)(F)c1cccc(-c2ncccc2-c2ccc3nccn3c2)c1 [Compound 199, 6-(2-(3-(Trifluoromethyl)phenyl)pyridin-3-yl)H-imidazo[1,2-a]pyridine] | 1.16
Oc1cccc(-c2ncccc2-c2cnc3cn[nH]c3c2)c1 [Compound 144, 3-(3-(1H-Pyrazolo[4,3-b]pyridin-6-yl)pyridin-2-yl)phenol] | 9.39
N#Cc1cnc2ccc(-c3cccnc3-c3cccc(F)c3)cn12 [compound 621, 6-(2-(3-Fluorophenyl)pyridin-3-yl)imidazo[1,2-a]pyridine-3-carbonitrile] | 3.93
CC(C)Nc1ncnc2ccc(-c3cccnc3-c3ccc(F)c(Cl)c3)cc12 [compound 401, 6-(2-(3-Chloro-4-fluorophenyl)pyridin-3-yl)-N-isopropylquinazolin-4-amine] | 5.89
Cc1cc(-c2ncccc2-c2cn3ccnc3cc2C)ccc1F [compound 808, 6-(2-(4-Fluoro-3-methylphenyl)pyridin-3-yl)-7-methylimidazo[1,2-a]pyridine] | 1.54
Cc1cc(-c2ncccc2-c2ccc3cn[nH]c3c2)ccc1F [Compound 99, 6-(2-(4-Fluoro-3-methylphenyl)pyridin-3-yl)-1H-indazole] | 0.894
Cc1cc(-c2ncccc2-c2ccn3c(-c4ccncc4)ncc3c2)ccc1F [compound 287, 7-(2-(4-Fluoro-3-methylphenyl)pyridin-3-yl)-3-(pyridin-4-yl)imidazo[1,5-a]pyridine] | 3.03
Cc1cc(-c2ncccc2-c2ccc3ncnc(NCc4ccncc4)c3c2)ccc1F [compound 415, 6-(2-(4-Fluoro-3-methylphenyl)pyridin-3-yl)-N-(pyridin-4-ylmethyl)quinazolin-4-amine] | 11.8
Cc1cc(-c2ncccc2-c2ccc3ncnn3c2C)ccc1F [compound 809, 6-(2-(4-Fluoro-3-methylphenyl)pyridin-3-yl)-5-methyl-[1,2,4]triazolo[1,5-a]pyridine] | 4
Fc1cc(F)cc(-c2ncccc2-c2ccc3ncsc3c2)c1 [compound 660, 6-(2-(3,5-Difluorophenyl)pyridin-3-yl)benzo[d]thiazole] | 2.24
Cc1cc(-c2ncccc2-c2ccc3ncc(C(=O)O)n3c2)ccc1F [compound 579, 6-(2-(4-Fluoro-3-methylphenyl)pyridin-3-yl)imidazo[1,2-a]pyridine-3-carboxylic acid] | 12.4

Compound | IC50 [µM]
Fc1cc(F)c(-c2ncccc2-c2ccc3nccnc3n2)cc1F [compound 741, 6-(2-(2,4,5-Trifluorophenyl)pyridin-3-yl)pyrido[2,3-b]pyrazine] | 10
CCOc1cnc(-c2ccc(F)c(F)c2)c(-c2ccc3[nH]ncc3c2)c1 [Compound 7, 5-(5-Ethoxy-2-(3,4-difluorophenyl)pyridin-3-yl)-1H-indazole] | 23.1
c1cc(-c2ncccc2-c2ccc3ncncc3c2)cc(C2CC2)c1 [compound 365, 6-(2-(3-Cyclopropylphenyl)pyridin-3-yl)quinazoline] | 0.165
O=C(NCCCN1CCCC1=O)c1cnc2ccc(-c3cccnc3-c3ccc(F)c(Cl)c3)cn12 [compound 727, 6-(2-(3-Chloro-4-fluorophenyl)pyridin-3-yl)-N-(3-(2-oxopyrrolidin-1-yl)propyl)imidazo[1,2-a]pyridine-3-carboxamide] | 0.886
Cc1cc(-c2ncccc2-c2ccn3c(C(=O)NCCCN4CCOCC4)ncc3c2)ccc1F [compound 266, 7-(2-(4-Fluoro-3-methylphenyl)pyridin-3-yl)-N-(3-morpholinopropyl)imidazo[1,5-a]pyridine-3-carboxamide] | 4.54
[2H]C([2H])([2H])c1cccc(-c2ncccc2-c2ccc3ncc(C#N)n3c2)c1 [compound 601, 6-(2-(3-(Methyl-d3)phenyl)pyridin-3-yl)imidazo[1,2-a]pyridine-3-carbonitrile] | 0.141
CN1CCC(NC(=O)c2cnc3ccc(-c4cccnc4-c4ccc(F)c(Cl)c4)cn23)CC1 [compound 709, 6-(2-(3-Chloro-4-fluorophenyl)pyridin-3-yl)-N-(1-methylpiperidin-4-yl)imidazo[1,2-a]pyridine-3-carboxamide] | 0.252
Cc1cccc(-c2ncccc2-c2ccc3ncn(CCCO)c3c2)c1 [compound 38] | 3.23
N#Cc1cccc(-c2ncccc2-c2ccc3ncsc3c2)c1 [compound 670, 3-(3-(Benzo[d]thiazol-6-yl)pyridin-2-yl)benzonitrile] | 0.367
Nc1ncnc2ccc(-c3cccnc3-c3cccc(F)c3Cl)cc12 [compound 503, 6-(2-(2-Chloro-3-fluorophenyl)pyridin-3-yl)quinazolin-4-amine] | 4.82
FC(F)(F)c1cccc(-c2ncccc2-c2ccn3cncc3c2)c1 [compound 597, 7-(2-(3-(Trifluoromethyl)phenyl)pyridin-3-yl)imidazo[1,5-a]pyridine] | 0.837
Fc1ccc(Cl)cc1-c1ncccc1-c1ccc2ncnn2c1 [compound 747, 6-(2-(5-Chloro-2-fluorophenyl)pyridin-3-yl)-[1,2,4]triazolo[1,5-a]pyridine] | 0.284
Cc1cc(-c2ncccc2-c2ccc3[nH]ncc3c2)ccc1F [Compound 63, 5-(2-(4-Fluoro-3-methylphenyl)pyridin-3-yl)-1H-indazole] | 0.142
Cc1cc(-c2ncc(NS(C)(=O)=O)cc2-c2ccc3[nH]ncc3c2)ccc1F [Compound 30, N-(6-(4-Fluoro-3-methylphenyl)-5-(1H-indazol-5-yl)pyridin-3-yl)methanesulfonamide] | 3.7
Cc1cc(-c2ncc(NC(=O)CCCc3ccncc3)cc2-c2ccc3ncsc3c2)ccc1F [compound 317, N-(5-(Benzo[d]thiazol-6-yl)-6-(4-fluoro-3-methylphenyl)pyridin-3-yl)-4-(pyridin-4-yl)butanamide] | 5.5
Nc1ncc2ccc(-c3cccnc3-c3ccc(F)c(Cl)c3)cc2n1 [compound 496, 7-(2-(3-Chloro-4-fluorophenyl)pyridin-3-yl)quinazolin-2-amine] | 0.783
COc1cnc(-c2ccc(F)c(C)c2)c(-c2ccc3[nH]ncc3c2)c1 [Compound 8, 5-(2-(4-Fluoro-3-methylphenyl)-5-methoxypyridin-3-yl)-1H-indazole] | 5.35
Cc1cc(-c2ncc(Nc3ccncc3)cc2-c2ccc3ncsc3c2)ccc1F [compound 311, 5-(Benzo[d]thiazol-6-yl)-6-(4-fluoro-3-methylphenyl)-N-(pyridin-4-yl)pyridin-3-amine] | 4.72
COc1cnc(-c2ccc(F)c(Cl)c2)c(-c2ccn3ncnc3c2)c1 [compound 856, 7-(2-(3-Chloro-4-fluorophenyl)-5-methoxypyridin-3-yl)-[1,2,4]triazolo[1,5-a]pyridine] | 5.58
Fc1ccc(-c2ncccc2-c2ccc3nccn3c2)cc1 [Compound 53, 6-(2-(4-Fluorophenyl)pyridin-3-yl)imidazo[1,2-a]pyridine] | 13.4
Fc1ccc(Cl)cc1-c1ncccc1-c1ccn2nccc2n1 [compound 917, 5-(2-(5-Chloro-2-fluorophenyl)pyridin-3-yl)pyrazolo[1,5-a]pyrimidine] | 0.18

Reference: patent US10858335B2 (Rigel Pharmaceuticals, Inc., priority 2014, dated 2020)
